We go through 7 compounds from US20110086759A1, “CHEMICAL COMPOUNDS” (SYNGENTA CROP PROTECTION, INC., priority 2007, published 2011).

SMILES strings stand for the structures.

What all share (format): in vivo
The test system of experiment [1] is Solanum nigrum (SOLNI). Kind of experiment: Post-emergence biological efficacy, glasshouse pot test. The note with it: 312 h. The method in brief: (§1)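 Pot-grown weeds were sprayed 8 days after sowing with test compound in acetone/water (50:50) with 0.5% Tween 20 at 1000 or 250 g/ha. Glasshouse at 24/16° C day/night, 14 h light, 65% humidity. Damage scored 0-100 (100 = total damage) after 13 days.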

In experiment [2] the test system is Alopecurus myosuroides (ALOMY). The description is as above. The note with it: 312 h. Summed up:
as §1

Experiment [3] deals with Amaranthus retoflexus (AMARE). The experiment is described as above. The following applies: Amaranthus retroflexus, 312 h. Summed up: as §1
Experiment [4] relates to Echinochloa crus-galli (ECHCG). The description is as above. The following applies: 312 h. Summed up:
as §1

Experiment [5] deals with Ipomea hederaceae (IPOHE). The experiment is described as above. The following applies: Ipomoea hederacea, 312 h. Summed up: as §1
Experiment [6] relates to Setaria faberi (SETFA). The experiment is described as above. The note with it: 312 h. Summed up:
as §1

Experiment [7] relates to Solanum nigrum (SOLNI). As to the kind of experiment: Pre-emergence biological efficacy, glasshouse pot test. The note with it: 312 h. Summed up:
(§2)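 Glasshouse pot test: spray on soil one day after sowing, 1000 or 250 g/ha. Conditions 24/16 °C day/night, 14 h light, 65% humidity. Plant damage scored 0–100 at 13 days.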

In experiment [8] the test system is Alopecurus myosuroides (ALOMY). The description is as above. The following applies: 312 h. The method in brief:
as §2

For experiment [9], the system named is Amaranthus retoflexus (AMARE). The experiment is described as above. The following applies: Amaranthus retroflexus, 312 h. Summed up: as §2
For experiment [10], the system named is Echinochloa crus-galli (ECHCG). The description is as above. The following applies: 312 h. The method in brief:
as §2

The test system of experiment [11] is Ipomea hederaceae (IPOHE). Described as above. The following applies: Ipomoea hederacea, 312 h. The method in brief:
as §2

Experiment [12] concerns Setaria faberi (SETFA). Described as above. The note with it: 312 h. The method in brief: as §2
Where [13] appears, read: post-emergence, 1,000 g/ha, evaluated after 13 days (100=total damage; 0=no damage), read-out: Percentage damage caused to weed species, SOLNI.
Where [14] appears, read: post-emergence, 1,000 g/ha, evaluated after 13 days (100=total damage; 0=no damage), read-out: Percentage damage caused to weed species, ALOMY.
Where [15] appears, read: post-emergence, 1,000 g/ha, evaluated after 13 days (100=total damage; 0=no damage), read-out: Percentage damage caused to weed species, AMARE.
Where [16] appears, read: post-emergence, 1,000 g/ha, evaluated after 13 days (100=total damage; 0=no damage), read-out: Percentage damage caused to weed species, ECHCG.
Setting [17] is: post-emergence, 1,000 g/ha, evaluated after 13 days (100=total damage; 0=no damage), read-out: Percentage damage caused to weed species, IPOHE.
Setting [18] is: post-emergence, 1,000 g/ha, evaluated after 13 days (100=total damage; 0=no damage), read-out: Percentage damage caused to weed species, SETFA.
The mark [19] stands for this setting: pre-emergence, 1,000 g/ha, evaluated after 13 days (100=total damage; 0=no damage), read-out: Percentage damage SOLNI.
Where [20] appears, read: pre-emergence, 1,000 g/ha, evaluated after 13 days (100=total damage; 0=no damage), read-out: Percentage damage ALOMY.
Setting [21] is: pre-emergence, 1,000 g/ha, evaluated after 13 days (100=total damage; 0=no damage), read-out: Percentage damage AMARE.
[22] abbreviates: pre-emergence, 1,000 g/ha, evaluated after 13 days (100=total damage; 0=no damage), read-out: Percentage damage ECHCG.
[23] abbreviates: pre-emergence, 1,000 g/ha, evaluated after 13 days (100=total damage; 0=no damage), read-out: Percentage damage IPOHE.
Setting [24] is: pre-emergence, 1,000 g/ha, evaluated after 13 days (100=total damage; 0=no damage), read-out: Percentage damage SETFA.
[25] abbreviates: Rate 1,000 g/ha, post-emergence spray, evaluated after 13 days (100=total damage to plant; 0=no damage to plant), read-out: Percentage damage caused to weed species, post-emergence, SOLNI.
Setting [26] is: Rate 1,000 g/ha, post-emergence spray, evaluated after 13 days (100=total damage to plant; 0=no damage to plant), read-out: Percentage damage caused to weed species, post-emergence, ALOMY.
Where [27] appears, read: Rate 1,000 g/ha, post-emergence spray, evaluated after 13 days (100=total damage to plant; 0=no damage to plant), read-out: Percentage damage caused to weed species, post-emergence, AMARE.
Setting [28] is: Rate 1,000 g/ha, post-emergence spray, evaluated after 13 days (100=total damage to plant; 0=no damage to plant), read-out: Percentage damage caused to weed species, post-emergence, ECHCG.
[29] abbreviates: Rate 1,000 g/ha, post-emergence spray, evaluated after 13 days (100=total damage to plant; 0=no damage to plant), read-out: Percentage damage caused to weed species, post-emergence, IPOHE.
Where [30] appears, read: Rate 1,000 g/ha, post-emergence spray, evaluated after 13 days (100=total damage to plant; 0=no damage to plant), read-out: Percentage damage caused to weed species, post-emergence, SETFA.
Setting [31] is: pre-emergence, rate 1,000 g/ha, evaluated after 13 days (100=total damage to plant; 0=no damage), read-out: Percentage damage caused to weed species, SOLNI.
Where [32] appears, read: pre-emergence, rate 1,000 g/ha, evaluated after 13 days (100=total damage to plant; 0=no damage), read-out: Percentage damage caused to weed species, ALOMY.
Setting [33] is: pre-emergence, rate 1,000 g/ha, evaluated after 13 days (100=total damage to plant; 0=no damage), read-out: Percentage damage caused to weed species, AMARE.
[34] abbreviates: pre-emergence, rate 1,000 g/ha, evaluated after 13 days (100=total damage to plant; 0=no damage), read-out: Percentage damage caused to weed species, ECHCG.
Setting [35] is: pre-emergence, rate 1,000 g/ha, evaluated after 13 days (100=total damage to plant; 0=no damage), read-out: Percentage damage caused to weed species, IPOHE.
[36] abbreviates: pre-emergence, rate 1,000 g/ha, evaluated after 13 days (100=total damage to plant; 0=no damage), read-out: Percentage damage caused to weed species, SETFA.

For the compound `COC(=O)c1nc(C2CC2)nc(NC2(CCc3ccccc3)CC2)c1Cl` [Compound 4-17, 5-Chloro-2-cyclopropyl-6-methoxycarbonyl-4-[1-(2-phenylethyl)-cyclopropylamino]-pyrimidine], the pest or weed control at 1000 g/ha in the experiment on Solanum nigrum (SOLNI) [1] (setting [13]) was determined as 70%; in [2] (setting [14]), 20%; in experiment [3] (setting [15]), 100%; in experiment [4] (setting [16]), 30%; in experiment [5] (setting [17]), 60%; in the experiment on Setaria faberi (SETFA) [6] (setting [18]), 60%. Moreover, the pest or weed control at 1000 g/ha in the experiment with Solanum nigrum (SOLNI) [7] (setting [19]) was determined as 10%; in experiment [8] (setting [20]), 10%; in [9] (setting [21]), 50%; in experiment [10] (setting [22]) it was 20%; in experiment [11] (setting [23]) it was 70%; in the experiment with Setaria faberi (SETFA) [12] (setting [24]) it was 0%.
Regarding `COC(=O)c1nc(C2CC2)nc(NCC(C)c2ccccc2)c1Cl` (stereo not drawn) [Compound 4-232, 5-Chloro-2-cyclopropyl-6-methoxycarbonyl-4-[2-(phenyl)propyl-amino]-pyrimidine], the pest or weed control at 1000 g/ha came out at 70% with Solanum nigrum (SOLNI) [1] (setting [13]); 20% in [2] (setting [14]); 100% in [3] (setting [15]); 30% in experiment [4] (setting [16]); 100% in experiment [5] (setting [17]); 50% with Setaria faberi (SETFA) [6] (setting [18]). In addition, the pest or weed control at 1000 g/ha worked out at 80% in the experiment with Solanum nigrum (SOLNI) [7] (setting [19]); 10% in [8] (setting [20]); 90% in [9] (setting [21]); 30% in experiment [10] (setting [22]); 50% in experiment [11] (setting [23]); 30% in the experiment with Setaria faberi (SETFA) [12] (setting [24]).
In the case of `COC(=O)c1nc(C2CC2)nc(N(CCO)Cc2cccnc2)c1Cl` [Compound 157-156, 5-Chloro-2-cyclopropyl-4-(N-2-hydroxyethyl-N-pyrid-3-ylmethyl--amino)-6-methoxy-carbonylpyrimidine], the pest or weed control at 1000 g/ha with Solanum nigrum (SOLNI) [1] (setting [25]) amounted to 40%; in [2] (setting [26]) it was 0%; in experiment [3] (setting [27]) it was 40%; in experiment [4] (setting [28]) it was 0%; in experiment [5] (setting [29]), 40%; in the experiment with Setaria faberi (SETFA) [6] (setting [30]), 0%. Also, the pest or weed control at 1000 g/ha in the experiment with Solanum nigrum (SOLNI) [7] (setting [31]) was 20%; in [8] (setting [32]) it was 0%; in experiment [9] (setting [33]), 40%; in experiment [10] (setting [34]), 0%; in [11] (setting [35]) it was 40%; with Setaria faberi (SETFA) [12] (setting [36]), 0%.
In the case of `COC(=O)c1nc(-c2ccc(Cl)c(Cl)c2Cl)nc(NCc2ccco2)c1Cl` [Compound 231-48, 5-Chloro-4-(furan-2-ylmethylamino)-6-methoxycarbonyl-2-(2,3,4-trichloro-phenyl)pyrimidine], the pest or weed control at 1000 g/ha in the experiment on Solanum nigrum (SOLNI) [1] (setting [25]) was determined as 80%; in experiment [2] (setting [26]), 50%; in experiment [3] (setting [27]), 100%; in experiment [4] (setting [28]) it was 30%; in [5] (setting [29]) it was 70%; with Setaria faberi (SETFA) [6] (setting [30]) it was 70%. Moreover, the pest or weed control at 1000 g/ha in the experiment with Solanum nigrum (SOLNI) [7] (setting [31]) was determined as 40%; in experiment [8] (setting [32]), 40%; in experiment [9] (setting [33]), 100%; in [10] (setting [34]), 30%; in [11] (setting [35]) it was 10%; in the experiment with Setaria faberi (SETFA) [12] (setting [36]), 20%.
`COC(=O)c1nc(C2CC2)nc(N(Cc2ccc(C)o2)C(C)C)c1Cl` [Compound 146-135, 5-Chloro-2-cyclopropyl-6-methoxycarbonyl-4-[N-(5-methylfuran-2-ylmethyl)-N-prop-2-yl-amino]-pyrimidine]: the pest or weed control at 1000 g/ha is 90% with Solanum nigrum (SOLNI) [1] (setting [25]); 40% in experiment [2] (setting [26]); 100% in [3] (setting [27]); 80% in experiment [4] (setting [28]); 100% in experiment [5] (setting [29]); 90% in the experiment on Setaria faberi (SETFA) [6] (setting [30]). Also, the pest or weed control at 1000 g/ha in the experiment with Solanum nigrum (SOLNI) [7] (setting [31]) worked out at 100%; in experiment [8] (setting [32]), 40%; in [9] (setting [33]) it was 100%; in experiment [10] (setting [34]), 10%; in experiment [11] (setting [35]), 100%; in the experiment on Setaria faberi (SETFA) [12] (setting [36]), 40%.
Regarding `COC(=O)c1nc(C2CC2)nc(NCC2CCCCC2)c1Cl` [Compound 4-49, 5-Chloro-4-cyclohexylmethyl-amino-2-cyclo-propyl-6-methoxy-carbonylpyrimidine], the pest or weed control at 1000 g/ha in the experiment on Solanum nigrum (SOLNI) [1] (setting [13]) is 70%; in experiment [2] (setting [14]), 10%; in experiment [3] (setting [15]), 100%; in [4] (setting [16]), 40%; in experiment [5] (setting [17]) it was 70%; in the experiment with Setaria faberi (SETFA) [6] (setting [18]) it was 40%. The pest or weed control at 1000 g/ha in the experiment on Solanum nigrum (SOLNI) [7] (setting [19]) was found to be 30%; in experiment [8] (setting [20]), 0%; in experiment [9] (setting [21]), 10%; in experiment [10] (setting [22]) it was 0%; in experiment [11] (setting [23]), 40%; with Setaria faberi (SETFA) [12] (setting [24]), 0%.
For `COC(=O)c1nc(C2CC2)nc(NC2(/C=C/c3ccccc3F)CC2)c1Cl` [Compound 4-27, 5-Chloro-2-cyclopropyl-4-{1-[2-(2-fluorophenyl)-ethenyl]-cyclo-propylamino}-6-methoxycarbonyl-pyrimidine], the pest or weed control at 1000 g/ha in the experiment on Solanum nigrum (SOLNI) [1] (setting [13]) was found to be 80%; in experiment [2] (setting [14]), 10%; in experiment [3] (setting [15]), 100%; in experiment [4] (setting [16]), 60%; in experiment [5] (setting [17]) it was 100%; in the experiment on Setaria faberi (SETFA) [6] (setting [18]) it was 70%. Further, the pest or weed control at 1000 g/ha in the experiment with Solanum nigrum (SOLNI) [7] (setting [19]) turned out to be 10%; in experiment [8] (setting [20]) it was 10%; in experiment [9] (setting [21]), 40%; in experiment [10] (setting [22]), 0%; in [11] (setting [23]), 80%; in the experiment with Setaria faberi (SETFA) [12] (setting [24]), 0%.
